Data as given in ChEMBL document CHEMBL1153550, “In vitro study of Candida tropicalis isolates exhibiting paradoxical growth in the presence of high concentrations of caspofungin” (2007).
≈ marks a conversion by molar mass, not a printed value. Calls of active or inactive are those of the source. The rule behind the calls is not given here.

What was measured:
Candida tropicalis [1] = assay: Antifungal activity against 2 x 10^7 CFU/ml Candida tropicalis isolate 5 in RPMI 1640 medium after 24 hrs by broth microdilution method; type: functional; settings: isolate 5, 24 h
Candida tropicalis [2] = assay: Fungistatic activity against Candida tropicalis clinical isolates at 12.5 ug/ml after 24 to 48 hrs by time-kill assay; type: functional, organism-based
Candida tropicalis [3] = assay: Antifungal activity against > 2 x 10^7 CFU/ml Candida tropicalis isolate 10 in antibiotic medium 3 assessed as partial growth after 24 hrs by broth microdilution method; type: functional, organism-based
Candida tropicalis [4] = assay: Antifungal activity against 10^5 CFU/ml Candida tropicalis isolate 14 in RPMI 1640 medium at =< 0.09 ug/ml after 24 hrs followed by incubation in drug free medium for 48 hrs by broth microdilution method; type: functional, organism-based
Candida tropicalis [5] = assay: Antifungal activity against 10^5 CFU/ml Candida tropicalis isolate 6 in antibiotic medium 3 at 6.25 ug/ml treated for 24 hrs followed by incubation in drug free medium for 48 hrs by broth microdilution method; type: functional, organism-based
Candida tropicalis [6] = assay: Antifungal activity against 2 x 10^7 CFU/ml Candida tropicalis isolate 11 in RPMI 1640 medium after 24 hrs by broth microdilution method; type: functional; settings: isolate 11, 24 h
Candida tropicalis [7] = assay: Antifungal activity against 2 x 10^7 CFU/ml Candida tropicalis isolate 6 in antibiotic medium 3 after 24 hrs by broth microdilution method; type: functional; settings: isolate 6, 24 h
Candida tropicalis [8] = assay: Antifungal activity against 10^5 CFU/ml Candida tropicalis clinical isolate in antibiotic medium 3 treated for 24 hrs followed by incubation in drug free medium for 48 hrs by broth microdilution method; type: functional, organism-based
Candida tropicalis [9] = assay: Antifungal activity against Candida tropicalis ATCC 750 in RPMI 1640 medium assessed as paradoxical growth at 12.5 ug/ml after 24 hrs by broth microdilution method; type: functional, organism-based
Candida tropicalis [10] = assay: Antifungal activity against 10^5 CFU/ml Candida tropicalis isolate 13 in RPMI 1640 medium at 12.5 ug/ml treated for 24 hrs followed by incubation in drug free medium for 48 hrs by broth microdilution method; type: functional, organism-based
Candida tropicalis [11] = assay: Antifungal activity against 10^5 CFU/ml Candida tropicalis isolate 2 in RPMI 1640 medium at 12.5 ug/ml treated for 24 hrs followed by incubation in drug free medium for 48 hrs by broth microdilution method; type: functional, organism-based
Candida tropicalis [12] = assay: Antifungal activity against 10^5 CFU/ml Candida tropicalis clinical isolates in RPMI 1640 medium at 6.25 ug/ml after 48 hrs followed by incubation in drug free medium for 48 hrs by broth microdilution method; type: functional, organism-based
Candida tropicalis [13] = assay: Antifungal activity against 10^5 CFU/ml Candida tropicalis isolate 1 in RPMI 1640 medium at 12.5 ug/ml treated for 48 hrs followed by incubation in drug free medium for 48 hrs by broth microdilution method; type: functional, organism-based
Candida tropicalis [14] = assay: Antifungal activity against Candida tropicalis clinical isolate in antibiotic medium 3 assessed as paradoxical growth-related change in CFU treated for 24 hrs by time-kill assay; type: functional
Candida tropicalis [15] = assay: Antifungal activity against 10^5 CFU/ml Candida tropicalis isolate 12 in RPMI 1640 medium at 12.5 ug/ml treated for 24 hrs followed by incubation in drug free medium for 48 hrs by broth microdilution method; type: functional, organism-based
Candida tropicalis [16] = assay: Antifungal activity against 10^5 CFU/ml Candida tropicalis isolate 3 in RPMI 1640 medium at 12.5 ug/ml treated for 48 hrs followed by incubation in drug free medium for 48 hrs by broth microdilution method; type: functional, organism-based
Candida tropicalis [17] = assay: Antifungal activity against 2 x 10^7 CFU/ml Candida tropicalis isolate 4 in antibiotic medium 3 after 24 hrs by broth microdilution method; type: functional; settings: isolate 4, 24 h
Candida tropicalis [18] = assay: Antifungal activity against 10^5 CFU/ml Candida tropicalis isolate 4 in RPMI 1640 medium at =< 0.09 ug/ml after 24 hrs followed by incubation in drug free medium for 48 hrs by broth microdilution method; type: functional, organism-based
Candida tropicalis [19] = assay: Antifungal activity against 10^5 CFU/ml Candida tropicalis isolate 3 in RPMI 1640 medium at 12.5 ug/ml treated for 24 hrs followed by incubation in drug free medium for 48 hrs by broth microdilution method; type: functional, organism-based
Candida tropicalis [20] = assay: Antifungal activity against > 2 x 10^7 CFU/ml Candida tropicalis isolate 5 in RPMI 1640 medium assessed as partial growth after 24 hrs by broth microdilution method; type: functional, organism-based
Candida tropicalis [21] = assay: Antifungal activity against Candida tropicalis isolate 1 in antibiotic medium 3 assessed as paradoxical growth at 12.5 ug/ml after 24 hrs by broth microdilution method; type: functional, organism-based
Candida tropicalis [22] = assay: Antifungal activity against 10^5 CFU/ml Candida tropicalis isolate 4 in RPMI 1640 medium at 0.4 to 12.5 ug/ml treated for 48 hrs followed by incubation in drug free medium for 48 hrs by broth microdilution method; type: functional, organism-based
Candida tropicalis [23] = assay: Antifungal activity against 10^5 CFU/ml Candida tropicalis isolate 10 in RPMI 1640 medium at 12.5 ug/ml treated for 24 hrs followed by incubation in drug free medium for 48 hrs by broth microdilution method; type: functional, organism-based
Candida tropicalis [24] = assay: Antifungal activity against Candida tropicalis isolate 6 in RPMI 1640 medium assessed as paradoxical growth at 12.5 ug/ml after 24 hrs by broth microdilution method; type: functional, organism-based
Candida tropicalis [25] = assay: Antifungal activity against 10^5 CFU/ml Candida tropicalis isolate 13 in RPMI 1640 medium at 12.5 ug/ml treated for 48 hrs followed by incubation in drug free medium for 48 hrs by broth microdilution method; type: functional, organism-based
Candida tropicalis [26] = assay: Antifungal activity against Candida tropicalis isolate 5 in RPMI 1640 medium assessed as paradoxical growth at 12.5 ug/ml after 48 hrs by broth microdilution method; type: functional, organism-based
Candida tropicalis [27] = assay: Antifungal activity against > 2 x 10^7 CFU/ml Candida tropicalis isolate 8 in antibiotic medium 3 assessed as partial growth after 24 hrs by broth microdilution method; type: functional, organism-based
Candida tropicalis [28] = assay: Antifungal activity Candida tropicalis ATCC 750 in RPMI 1640 medium at 0.19 to 6.25 ug/ml after 24 hrs by time-kill assay; type: functional, organism-based
Candida tropicalis [29] = assay: Antifungal activity against Candida tropicalis isolate 8 in RPMI 1640 medium assessed as paradoxical growth at 12.5 ug/ml after 24 hrs by broth microdilution method; type: functional, organism-based
Candida tropicalis [30] = assay: Antifungal activity against 2 x 10^7 CFU/ml Candida tropicalis isolate 6 in RPMI 1640 medium after 24 hrs by broth microdilution method; type: functional; settings: isolate 6, 24 h
Candida tropicalis [31] = assay: Antifungal activity against > 2 x 10^7 CFU/ml Candida tropicalis isolate 6 in antibiotic medium 3 assessed as paradoxical growth after 24 hrs by broth microdilution method; type: functional, organism-based
Candida tropicalis [32] = assay: Antifungal activity against 2 x 10^7 CFU/ml Candida tropicalis isolate 7 in antibiotic medium 3 after 24 hrs by broth microdilution method; type: functional; settings: isolate 7, 24 h
Candida tropicalis [33] = assay: Antifungal activity against > 2 x 10^7 CFU/ml Candida tropicalis isolate 14 in antibiotic medium 3 assessed as partial growth after 24 hrs by broth microdilution method; type: functional, organism-based
Candida tropicalis [34] = assay: Antifungal activity against > 2 x 10^7 CFU/ml Candida tropicalis ATCC 750 in antibiotic medium 3 assessed as partial growth after 24 hrs by broth microdilution method; type: functional, organism-based
Candida tropicalis [35] = assay: Antifungal activity against > 2 x 10^7 CFU/ml Candida tropicalis isolate 2 in antibiotic medium 3 assessed as partial growth after 24 hrs by broth microdilution method; type: functional, organism-based

CC[C@H](C)C[C@H](C)CCCCCCCCC(=O)N[C@H]1C[C@@H](O)[C@@H](NCCN)NC(=O)[C@@H]2[C@@H](O)CCN2C(=O)[C@H]([C@H](O)CCN)NC(=O)[C@H]([C@H](O)[C@@H](O)c2ccc(O)cc2)NC(=O)[C@@H]2C[C@@H](O)CN2C(=O)[C@H]([C@@H](C)O)NC1=O [CASPOFUNGIN]
MIC (Candida tropicalis [1]): 0.024 µg/mL (≈ 0.022 µM)
Activity (Candida tropicalis [2]): Active
Activity (Candida tropicalis [3]): inactive
Activity (Candida tropicalis [4]): Active
Activity (Candida tropicalis [5]): inactive
MIC (Candida tropicalis [6]): 0.024 µg/mL (≈ 0.022 µM)
MIC (Candida tropicalis [7]): 0.024 µg/mL (≈ 0.022 µM)
Activity (Candida tropicalis [8]): Active
Activity (Candida tropicalis [9]): inactive
Activity (Candida tropicalis [10]): inactive
Activity (Candida tropicalis [11]): inactive
Activity (Candida tropicalis [12]): inactive
Activity (Candida tropicalis [13]): inactive
Activity (Candida tropicalis [14]): 0.36 log10CFU/ml
Activity (Candida tropicalis [15]): inactive
Activity (Candida tropicalis [16]): inactive
MIC (Candida tropicalis [17]): 0.024 µg/mL (≈ 0.022 µM)
Activity (Candida tropicalis [18]): Active
Activity (Candida tropicalis [19]): inactive
Activity (Candida tropicalis [20]): inactive
Activity (Candida tropicalis [21]): inactive
Activity (Candida tropicalis [22]): inactive
Activity (Candida tropicalis [23]): inactive
Activity (Candida tropicalis [24]): inactive
Activity (Candida tropicalis [25]): inactive
Activity (Candida tropicalis [26]): inactive
Activity (Candida tropicalis [27]): inactive
Activity (Candida tropicalis [28]): Active
Activity (Candida tropicalis [29]): inactive
MIC (Candida tropicalis [30]): 0.024 µg/mL (≈ 0.022 µM)
Activity (Candida tropicalis [31]): inactive
MIC (Candida tropicalis [32]): 0.024 µg/mL (≈ 0.022 µM)
Activity (Candida tropicalis [33]): inactive
Activity (Candida tropicalis [34]): inactive
Activity (Candida tropicalis [35]): inactive
